Square brackets hold non-standard residues; d marks the D form. Peptide text beside a SMILES is read from it. * marks the point of attachment. ξ: configuration not given here. 1Nal = N[C@@H](Cc1cccc2ccccc12)C(=O)O; hPhe = N[C@@H](CCc1ccccc1)C(=O)O; tBuAla = CC(C)(C)C[C@H](N)C(=O)O; Ile(3ξ) = CCC(C)[C@H](N)C(=O)O; ξPhg = NC(C(=O)O)c1ccccc1; ξTle = CC(C)(C)C(N)C(=O)O; Cbz = O=C(OCc1ccccc1)*
Tests used:
[1] = target: Calpain 1 (Homo sapiens, UniProt P07384); assay: Inhibition of Calpain 1 by [3H]acetyl-casein assay; type: protein-complex assay
[2] = target: Calpain 1 (Homo sapiens) (UniProt P04632+P07384); assay: Apparent second order rate constant for inhibition of calpain-1 by fluorogenic assay.; type: protein-complex assay
[3] = target: Cathepsin B (Homo sapiens) (UniProt P07858); assay: Apparent second order rate constant for inhibition of cathepsin B by fluorogenic assay.
[4] = target: Procathepsin L (Homo sapiens) (UniProt P07711); assay: Inhibition of cathepsin L (fluorogenic assay), apparent second order rate constant
Chain of Procathepsin L (Homo sapiens) (P07711 114-333 limits assumed): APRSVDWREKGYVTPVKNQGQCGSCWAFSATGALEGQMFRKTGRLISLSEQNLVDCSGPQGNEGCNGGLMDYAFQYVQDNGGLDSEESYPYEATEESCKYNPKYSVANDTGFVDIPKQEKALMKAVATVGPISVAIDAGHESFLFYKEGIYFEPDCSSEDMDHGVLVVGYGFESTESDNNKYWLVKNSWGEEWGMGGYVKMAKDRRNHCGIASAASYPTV

Chain of Calpain 1 (P04632 whole entry): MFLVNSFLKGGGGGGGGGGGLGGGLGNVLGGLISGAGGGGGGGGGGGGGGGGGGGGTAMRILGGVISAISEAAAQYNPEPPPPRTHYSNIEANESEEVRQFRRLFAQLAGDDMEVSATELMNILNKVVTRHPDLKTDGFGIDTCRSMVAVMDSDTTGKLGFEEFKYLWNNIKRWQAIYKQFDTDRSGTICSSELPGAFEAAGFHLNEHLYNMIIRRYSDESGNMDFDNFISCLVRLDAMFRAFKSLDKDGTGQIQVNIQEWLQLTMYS
Chain of Calpain 1 (P07384 whole entry): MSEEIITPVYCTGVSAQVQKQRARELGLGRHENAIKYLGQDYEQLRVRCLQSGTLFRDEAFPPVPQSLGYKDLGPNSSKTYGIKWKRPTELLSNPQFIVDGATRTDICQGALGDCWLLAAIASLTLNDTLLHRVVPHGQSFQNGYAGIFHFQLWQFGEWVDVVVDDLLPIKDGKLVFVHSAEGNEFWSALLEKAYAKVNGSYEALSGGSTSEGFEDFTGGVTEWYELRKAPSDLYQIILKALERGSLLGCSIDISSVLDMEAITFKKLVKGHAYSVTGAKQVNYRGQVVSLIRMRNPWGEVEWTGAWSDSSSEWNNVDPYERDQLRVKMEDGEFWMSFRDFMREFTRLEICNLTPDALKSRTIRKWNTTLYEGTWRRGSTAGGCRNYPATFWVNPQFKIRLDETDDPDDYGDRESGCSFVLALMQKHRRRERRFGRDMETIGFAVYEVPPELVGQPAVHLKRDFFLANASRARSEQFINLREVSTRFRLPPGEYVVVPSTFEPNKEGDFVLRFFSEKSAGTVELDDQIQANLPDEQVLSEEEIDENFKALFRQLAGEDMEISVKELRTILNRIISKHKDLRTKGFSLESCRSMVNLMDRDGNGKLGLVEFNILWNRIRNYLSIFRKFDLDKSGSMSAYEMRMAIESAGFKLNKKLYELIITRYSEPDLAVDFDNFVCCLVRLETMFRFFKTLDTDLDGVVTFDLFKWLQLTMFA

IC50 [1] | SMILES | other results
100 nM | CC(C)(C)C[C@H](NC(=O)OCc1ccccc1)C(=O)N[C@H](C=O)Cc1ccccc1 (Cbz-[tBuAla]-Phe-aldehyde) | 
25 nM | CC(C)[C@H](NC(=O)OCc1ccccc1)C(=O)N[C@H](C=O)Cc1ccc(O)cc1 (Cbz-Val-Tyr-aldehyde) | 
35 nM | CC(C)C[C@H](NC(=O)OCc1ccccc1)C(=O)N[C@H](C=O)Cc1ccccc1 (Cbz-Leu-Phe-aldehyde) | 
140 nM | C[C@H](NC(=O)OCc1ccccc1)C(=O)N[C@H](C=O)Cc1ccccc1 | 
100 nM | CC(C)[C@H](NC(=O)OCc1ccccc1)C(=O)N[C@H](C=O)Cc1cccc2ccccc12 (Cbz-Val-[1Nal]-aldehyde) | 
100 nM | CC(C)[C@H](NC(=O)OCc1ccccc1)C(=O)N[C@H](C=O)CCc1ccccc1 (Cbz-Val-[hPhe]-aldehyde) | 
100 nM | O=C[C@H](Cc1ccccc1)NC(=O)C(NC(=O)OCc1ccccc1)c1ccccc1 (some centres undefined) (Cbz-[ξPhg]-Phe-aldehyde) | 
500 nM | CC(C)(C)C(NC(=O)OCc1ccccc1)C(=O)N[C@H](C=O)Cc1ccccc1 (some centres undefined) (Cbz-[ξTle]-Phe-aldehyde) | 
270 nM | O=C[C@H](Cc1ccccc1)NC(=O)[C@H](CCc1ccccc1)NC(=O)OCc1ccccc1 (Cbz-[hPhe]-Phe-aldehyde) | 
400 nM | O=C[C@H](Cc1ccccc1)NC(=O)[C@H](Cc1ccccc1)NC(=O)OCc1ccccc1 (Cbz-Phe-Phe-aldehyde) | 
55 nM | CCC(C)[C@H](NC(=O)OCc1ccccc1)C(=O)N[C@H](C=O)Cc1ccc(O)cc1 (some centres undefined) (Cbz-[Ile(3ξ)]-Tyr-aldehyde) | 

More lines, now with the values behind:

SMILES | IC50 [1] | other results
CC(C)C[C@H](NC(=O)OCc1ccccc1)C(=O)N[C@H](C=O)Cc1ccc(O)cc1 (Cbz-Leu-Tyr-aldehyde) | 20 nM | 
CC(C)[C@H](NC(=O)OCc1ccccc1)C(=O)N1CCC[C@H]1C=O (Cbz-Val-Pro-aldehyde) | > 1000 nM | 
COc1ccc(C[C@@H](C=O)NC(=O)[C@@H](NC(=O)OCc2ccccc2)C(C)C)cc1 (Cbz-Val-Tyr(Me)-aldehyde) | 30 nM | 
O=C[C@H](Cc1ccccc1)NC(=O)[C@H](Cc1cccc2ccccc12)NC(=O)OCc1ccccc1 (Cbz-[1Nal]-Phe-aldehyde) | > 1000 nM | 
CC(C)CC(NC(=O)[C@@H](C)NC(=O)OCc1ccccc1)C(=O)NC(Cc1ccccc1)C(=O)COC(=O)c1c(F)cccc1F (some centres undefined) |  | k obs / 1 [2]: 31000 M⁻¹ s⁻¹; k obs / 1 [3]: 100 M⁻¹ s⁻¹; k obs / 1 [4]: 300 M⁻¹ s⁻¹
CC(C)CC(NC(=O)[C@@H](C)NC(=O)OCc1ccccc1)C(=O)NC(Cc1ccccc1)C(=O)COC(=O)c1c(Cl)ccc(OCCN2CCOCC2)c1Cl (some centres undefined) |  | k obs / 1 [2]: 32000 M⁻¹ s⁻¹; k obs / 1 [3]: 400 M⁻¹ s⁻¹; k obs / 1 [4]: 28000 M⁻¹ s⁻¹
CC(C)C[C@H](NC(=O)[C@H](C)NC(=O)OCc1ccccc1)C(=O)N[C@@H](Cc1ccccc1)C(=O)COC(=O)c1c(F)cccc1F |  | k obs / 1 [2]: 19000 M⁻¹ s⁻¹; k obs / 1 [3]: 2200 M⁻¹ s⁻¹; k obs / 1 [4]: 1600 M⁻¹ s⁻¹
